According to PMC9563435, “Comparison of Different Clinical Chemotherapeutical Agents’ Toxicity and Cell Response on Mesenchymal Stem Cells and Cancer Cells” (Cells, 2022):
Entries after “also recorded” stand apart in the source; their conditions may differ. Where a name gives a salt, the structure may show the parent alone.

Tests used:
Assay type in all cases: cell-based, human
Ad-MSC 3 cells = assay: Apoptosis assay (Annexin V / TO-PRO-3 flow cytometry), Ad-MSC 3; details: several concentrations; data not shown
Experimental: Apoptosis detection was based on the Annexin-V molecule binding to phosphatidylserine membrane molecules. Two cell lines were used to study apoptosis: Ad-MSC 3 cells were plated in a 5 × 10^4 cells/well concentration, while 4 × 10^4/well A431-mCh were seeded into each well in a 12-well tissue culture plate. […] At day 5, cells were trypsinized and centrifuged, while the supernatant was also collected and combined with the detached cells to include all already dead cells. Cells were washed twice with 500 µL of 1% BSA-PBS (bovine serum albumin dissolved in PBS, A8022, Sigma-Aldrich, St. Louis, MO, USA) solution and centrifuged at 400× G for 4 min. Cells were resuspended in 100 µL of 1× Annexin Binding Buffer (422201, Biolegend, San Diego, CA, USA), and 3 µL of Annexin V-Pacific Blue (A35122, Biolegend, San Diego, CA, USA) and 1 µL of TO-PRO-3 (R37170, Invitrogen, Waltham, MA, USA) were added to each sample. After 15 min of incubation, labeled and non-labeled samples were diluted 5-fold with 1× Annexin Binding Buffer and analyzed by Attune™ NxT flow cytometer.

[1] = tested on: 6 MSCs and 3 cancer cell lines; assay: Cytotoxicity / cell viability assay (PrestoBlue), panel of MSCs and cancer cell lines; details: for drug sensitivity of MSCs compared with cancer cells (in words): IC50 comparison
Experimental: (§1) Cells were seeded in a 96-well tissue culture plate in 100 µL of medium. Ad-MSC-GFP 1, iAd-MSC-GFP 1, Ad-MSC-GFP 2, Ad-MSC-GFP 3, BM-MSC, and HFF were seeded at 5 × 10^3/100 µL/well density and A431-mCh, MES-SA-mCh, and MCF-7-GFP at 4 × 10^3 cells/100 µL/well concentration in DMEM-F12 media. Different initial cell numbers were used due to different proliferation rates of different cell types. Cells were allowed to attach overnight at 37 °C and the day after were treated with the drugs using the indicated concentrations in 100 µL. Cell viability was measured by using PrestoBlue™ Cell Viability Reagent (A13232, Invitrogen, Waltham, MA, USA). To address metabolic differences between cancer cells and MSCs, the assay was optimized for each cell line, cells were incubated with 5 or 12.5% PrestoBlue™ Cell Viability Reagent diluted in PBS at 37 °C/5% CO2 for 1–1.5 h 5 days after the treatment. The fluorescence signal was measured by an EnSpire (Perkin Elmer, Waltham, MA, USA) fluorometer at 555 nm (excitation)/585 nm (emission) wavelength.
After the incubation period, the relative fluorescence data was measured. The data was normalized with the fluorescence of blank samples (cell culture media). A sigmoidal dose–response curve was fitted to the normalized measurement data and the logarithm of the concentration using the least square method. An inhibitory concentration of 50% (IC50 and log10) was interpolated from the fitted graph. […] In these cases, IC50 was calculated from the line connecting the measurement points. For repeated measurements, average and standard deviation was calculated based on the logarithm of the IC50 values.
To compare the mean IC50 values of six mesenchymal stem cell lines (Group-1) and three cancer cell lines (Group-2), first an F-test was performed to check equal variances between the groups, then two-sample unpaired t-tests were performed to calculate significance using Microsoft® Excel® 2016 (16.0.4266.1001).

A431-mCh cells = assay: Cytotoxicity / cell viability assay (PrestoBlue) on A431; details: compared with the other cell lines
Experimental: as §1
After the incubation period, the relative fluorescence data was measured. The data was normalized with the fluorescence of blank samples (cell culture media). […] In these cases, IC50 was calculated from the line connecting the measurement points. For repeated measurements, average and standard deviation was calculated based on the logarithm of the IC50 values.

SMILES | apoptosis induction in MSCs (in words) (Ad-MSC 3 cells) | drug sensitivity of MSCs compared with cancer cells (in words) ([1]; 5 days treatment) | further results
CN[C@@H]1C[C@H]2O[C@@](C)([C@@H]1OC)n1c3ccccc3c3c4c(c5c6ccccc6n2c5c31)C(=O)NC4 [staurosporine] | not able to induce apoptosis | – | –
O=C1c2c(O)ccc(O)c2C(=O)c2c(NCCNCCO)ccc(NCCNCCO)c21 [mitoxantrone] | not able to induce apoptosis | required significantly higher concentrations to kill MSCs than cancer cells | –
CC[C@]1(O)C[C@@H]2CN(CCc3c([nH]c4ccccc34)[C@@](C(=O)OC)(c3cc4c(cc3OC)N(C)[C@H]3[C@@](O)(C(=O)OC)[C@H](OC(C)=O)[C@]5(CC)C=CCN6CC[C@]43[C@@H]65)C2)C1 [vinblastine] | – | required significantly higher concentrations to kill MSCs than cancer cells | IC50 values in MSCs relative to cancer cells ([1]; 5 days treatment, MSCs higher than cancer cells): 1000 fold
[Cl][Co][Cl] [cobalt chloride] | not able to induce apoptosis | – | –
CN(Cc1cnc2nc(N)nc(N)c2n1)c1ccc(C(=O)N[C@@H](CCC(=O)O)C(=O)O)cc1 [methotrexate] | – | only toxic to A431-mCherry cells | sensitivity of A431 cells (in words) (A431-mCh cells): extreme sensitivity; also recorded: hypersensitive
CCc1c2c(nc3ccc(OC(=O)N4CCC(N5CCCCC5)CC4)cc13)-c1cc3c(c(=O)n1C2)COC(=O)[C@]3(O)CC [irinotecan, irinotecan hydrochloride] | – | required significantly higher concentrations to kill MSCs than cancer cells | –
OO [H2O2] | not able to induce apoptosis | – | –
c1ccc(CN(CCN(Cc2ccccn2)Cc2ccccn2)Cc2ccccn2)nc1 [TPEN] | – | equally toxic to both MSCs and cancer cells | –
Cn1nnc2c(C(N)=O)ncn2c1=O [temozolomide] | – | – | IC50 ([1]; Homo sapiens, all cell lines of the screening, read-out: toxic concentration in the IC50 screening (not toxic even at)): > 1000 µM
